According to ChEMBL document CHEMBL4800727 (2021):

Assays:
[1] = target: GABA-A receptor; anion channel; experiment: GPCRScan assay: inhibition of GABAA; assay type: protein-complex assay, Rattus norvegicus; design: radioligand conc. used [nm] 9.50 – 25.0, parental cells brain tissue
[2] = target: T1, 5-hydroxytryptamine receptor 1A (Homo sapiens) (UniProt P08908); conditions: Compound concentration 10.0 uM
T1 sequence (whole entry): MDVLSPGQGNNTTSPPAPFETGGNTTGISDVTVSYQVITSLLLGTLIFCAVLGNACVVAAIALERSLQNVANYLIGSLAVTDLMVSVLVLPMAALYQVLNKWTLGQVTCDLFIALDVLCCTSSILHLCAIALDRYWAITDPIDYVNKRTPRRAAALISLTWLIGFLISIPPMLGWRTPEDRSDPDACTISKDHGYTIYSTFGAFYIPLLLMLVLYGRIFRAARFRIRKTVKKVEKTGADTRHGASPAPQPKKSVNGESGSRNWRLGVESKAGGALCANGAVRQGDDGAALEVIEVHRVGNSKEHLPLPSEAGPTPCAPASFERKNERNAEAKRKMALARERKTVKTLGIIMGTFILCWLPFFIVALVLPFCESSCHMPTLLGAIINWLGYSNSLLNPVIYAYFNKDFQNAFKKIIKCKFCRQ

[3] = target: Sodium-dependent serotonin transporter (Homo sapiens) (UniProt P31645); conditions: Compound concentration 10.0 uM
[4] = target: Sodium-dependent noradrenaline transporter (Homo sapiens) (UniProt P23975); experiment: hNET Cerep panel; conditions: Compound concentration 10.0 uM
[5] = target: Histamine H4 receptor (Homo sapiens) (UniProt Q9H3N8); conditions: Compound concentration 10.0 uM
[6] = target: Prostaglandin G/H synthase 2 (Homo sapiens) (UniProt P35354); experiment: hCOX2 Cerep panel; conditions: Compound concentration 10.0 uM
[7] = cML1 Cerep panel; conditions: Compound concentration 10.0 uM
[8] = target: Death-associated protein kinase 2 (Homo sapiens) (UniProt Q9UIK4); experiment: death-associated protein kinase 2 Millipore kinase panel; conditions: Compound concentration 10.0 uM
[9] = target: Tyrosine-protein kinase Lyn (Homo sapiens) (UniProt P07948); experiment: v-yes-1 Yamaguchi sarcoma viral related oncogene homolog Millipore kinase panel; conditions: Compound concentration 10.0 uM
[10] = target: Glycogen synthase kinase-3 beta (Homo sapiens) (UniProt P49841); experiment: glycogen synthase kinase 3 beta Millipore kinase panel; conditions: Compound concentration 10.0 uM
[11] = target: Rhodopsin kinase GRK7 (Homo sapiens) (UniProt Q8WTQ7); experiment: G protein-coupled receptor kinase 7 Millipore kinase panel; conditions: Compound concentration 10.0 uM
[12] = target: Misshapen-like kinase 1 (Homo sapiens) (UniProt Q8N4C8); experiment: misshapen-like kinase 1 Millipore kinase panel; conditions: Compound concentration 10.0 uM
[13] = target: Ephrin type-A receptor 2 (Homo sapiens) (UniProt P29317); experiment: EPH receptor A2 Millipore kinase panel; conditions: Compound concentration 10.0 uM
[14] = target: Glutamate NMDA receptor (Rattus norvegicus) (UniProt P35439+Q00959+Q00960+Q00961+Q62645+Q8VHN2+Q9R1M7); experiment: rNMDA Cerep panel; assay type: protein-complex assay; conditions: Compound concentration 10.0 uM
[15] = target: Serine/threonine-protein kinase PLK2 (Homo sapiens) (UniProt Q9NYY3); experiment: polo-like kinase 2 Millipore kinase panel; conditions: Compound concentration 10.0 uM
[16] = target: Proto-oncogene tyrosine-protein kinase Src (Homo sapiens) (UniProt P12931); experiment: v-src sarcoma viral oncogene homolog Millipore kinase panel; conditions: Compound concentration 10.0 uM
[17] = target: Prostaglandin E2 receptor EP2 subtype (Homo sapiens) (UniProt P43116); experiment: hEP2 Cerep panel; conditions: Compound concentration 10.0 uM
[18] = target: Mitogen-activated protein kinase 14 (Homo sapiens) (UniProt Q16539); experiment: mitogen-activated protein kinase 14 Millipore kinase panel; conditions: Compound concentration 10.0 uM
[19] = target: Focal adhesion kinase 1 (Homo sapiens) (UniProt Q05397); experiment: PTK2 protein tyrosine kinase 2 Millipore kinase panel; conditions: Compound concentration 10.0 uM
[20] = target: Mitogen-activated protein kinase 11 (Homo sapiens) (UniProt Q15759); experiment: mitogen-activated protein kinase 11 Millipore kinase panel; conditions: Compound concentration 10.0 uM
[21] = target: Serine/threonine-protein kinase Chk1 (Homo sapiens) (UniProt O14757); experiment: CHK1 checkpoint homolog (S. pombe) Millipore kinase panel; conditions: Compound concentration 10.0 uM
Homo sapiens = species on record: Homo sapiens; experiment: protein kinase C, beta 2 Millipore kinase panel; conditions: Compound concentration 10.0 uM
[22] = target: Tyrosine-protein kinase Yes (Homo sapiens) (UniProt P07947); experiment: v-yes-1 Yamaguchi sarcoma viral oncogene homolog 1 Millipore kinase panel; conditions: Compound concentration 10.0 uM
[23] = target: Homeodomain-interacting protein kinase 2 (Homo sapiens) (UniProt Q9H2X6); experiment: homeodomain interacting protein kinase 2 Millipore kinase panel; conditions: Compound concentration 10.0 uM
[24] = target: Ephrin type-A receptor 4 (Homo sapiens) (UniProt P54764); experiment: EPH receptor A4 Millipore kinase panel; conditions: Compound concentration 10.0 uM
[25] = target: Substance-P receptor (Homo sapiens) (UniProt P25103); experiment: hNK1 Cerep panel; conditions: Compound concentration 10.0 uM
[26] = target: Serine/threonine-protein kinase D2 (Homo sapiens) (UniProt Q9BZL6); experiment: protein kinase D2 Millipore kinase panel; conditions: Compound concentration 10.0 uM
[27] = target: T2, cGMP-inhibited 3',5'-cyclic phosphodiesterase 3A (Homo sapiens, UniProt Q14432); experiment: hPDE3A Cerep panel; conditions: Compound concentration 10.0 uM
[28] = target: 3',5'-cyclic-AMP phosphodiesterase 4D (Homo sapiens, UniProt Q08499); experiment: hPDE4D3 PDE scan
[29] = target: Phosphatidylinositol 4,5-bisphosphate 3-kinase catalytic subunit gamma isoform (Homo sapiens) (UniProt P48736); experiment: phosphoinositide-3-kinase, catalytic, gamma polypeptide Millipore kinase panel; conditions: Compound concentration 10.0 uM
[30] = target: Serine/threonine-protein kinase TAO2 (Homo sapiens) (UniProt Q9UL54); experiment: TAO kinase 2 Millipore kinase panel; conditions: Compound concentration 10.0 uM
[31] = target: Glutamate receptor ionotropic, AMPA (Rattus norvegicus) (UniProt P19491+P19492+P19493+P19490); experiment: rGlutamate (ionotropic) AMPA Cerep panel; assay type: protein-complex assay; conditions: Compound concentration 10.0 uM
Rattus norvegicus [32] = species on record: Rattus norvegicus; experiment: rGABA Cerep panel; conditions: Compound concentration 10.0 uM
Rattus norvegicus [33] = species on record: Rattus norvegicus; conditions: Compound concentration 10.0 uM
[34] = target: Testis-specific serine/threonine-protein kinase 1 (Homo sapiens) (UniProt Q9BXA7); experiment: testis-specific serine kinase 1B Millipore kinase panel; conditions: Compound concentration 10.0 uM
Rattus norvegicus [35] = species on record: Rattus norvegicus; experiment: rGlutamate (ionotropic) MDL Cerep panel; conditions: Compound concentration 10.0 uM
[36] = target: Prostaglandin E2 receptor EP4 subtype (Homo sapiens) (UniProt P35408); experiment: hEP4 Cerep panel; conditions: Compound concentration 10.0 uM
[37] = target: Vasoactive intestinal polypeptide receptor 1 (Homo sapiens) (UniProt P32241); experiment: hVPAC1 Cerep panel; conditions: Compound concentration 10.0 uM
Rattus norvegicus [38] = species on record: Rattus norvegicus; experiment: rK channel Cerep panel; conditions: Compound concentration 10.0 uM
[39] = target: CDK3/cyclin E (Homo sapiens) (UniProt P24864+O96020+Q00526); experiment: cyclin-dependent kinase 3 / cyclinE Millipore kinase panel; assay type: protein-complex assay; conditions: Compound concentration 10.0 uM
[40] = target: Prostacyclin receptor (Homo sapiens) (UniProt P43119); experiment: hIP1 Cerep panel; conditions: Compound concentration 10.0 uM
[41] = target: Receptor tyrosine-protein kinase erbB-4 (Homo sapiens) (UniProt Q15303); experiment: v-erb-a erythroblastic leukemia viral oncogene homolog 4 Millipore kinase panel; conditions: Compound concentration 10.0 uM
[42] = target: Cyclin-dependent kinase 5/CDK5 activator 1 (Homo sapiens) (UniProt Q00535+Q15078); experiment: cyclin-dependent kinase 5 / p25 Millipore kinase panel; assay type: protein-complex assay; conditions: Compound concentration 10.0 uM
[43] = target: Serine/threonine-protein kinase Sgk1 (Homo sapiens) (UniProt O00141); experiment: serum/glucocorticoid regulated kinase 1 Millipore kinase panel; conditions: Compound concentration 10.0 uM
[44] = target: T2, cGMP-inhibited 3',5'-cyclic phosphodiesterase 3A; experiment: hPDE3A PDE scan
[45] = target: Rho-associated protein kinase 1 (Homo sapiens) (UniProt Q13464); experiment: Rho-associated, coiled-coil containing protein kinase 1 Millipore kinase panel; conditions: Compound concentration 10.0 uM
Sequence of Rho-associated protein kinase 1 (Homo sapiens) (Q13464 2-1354 limits assumed): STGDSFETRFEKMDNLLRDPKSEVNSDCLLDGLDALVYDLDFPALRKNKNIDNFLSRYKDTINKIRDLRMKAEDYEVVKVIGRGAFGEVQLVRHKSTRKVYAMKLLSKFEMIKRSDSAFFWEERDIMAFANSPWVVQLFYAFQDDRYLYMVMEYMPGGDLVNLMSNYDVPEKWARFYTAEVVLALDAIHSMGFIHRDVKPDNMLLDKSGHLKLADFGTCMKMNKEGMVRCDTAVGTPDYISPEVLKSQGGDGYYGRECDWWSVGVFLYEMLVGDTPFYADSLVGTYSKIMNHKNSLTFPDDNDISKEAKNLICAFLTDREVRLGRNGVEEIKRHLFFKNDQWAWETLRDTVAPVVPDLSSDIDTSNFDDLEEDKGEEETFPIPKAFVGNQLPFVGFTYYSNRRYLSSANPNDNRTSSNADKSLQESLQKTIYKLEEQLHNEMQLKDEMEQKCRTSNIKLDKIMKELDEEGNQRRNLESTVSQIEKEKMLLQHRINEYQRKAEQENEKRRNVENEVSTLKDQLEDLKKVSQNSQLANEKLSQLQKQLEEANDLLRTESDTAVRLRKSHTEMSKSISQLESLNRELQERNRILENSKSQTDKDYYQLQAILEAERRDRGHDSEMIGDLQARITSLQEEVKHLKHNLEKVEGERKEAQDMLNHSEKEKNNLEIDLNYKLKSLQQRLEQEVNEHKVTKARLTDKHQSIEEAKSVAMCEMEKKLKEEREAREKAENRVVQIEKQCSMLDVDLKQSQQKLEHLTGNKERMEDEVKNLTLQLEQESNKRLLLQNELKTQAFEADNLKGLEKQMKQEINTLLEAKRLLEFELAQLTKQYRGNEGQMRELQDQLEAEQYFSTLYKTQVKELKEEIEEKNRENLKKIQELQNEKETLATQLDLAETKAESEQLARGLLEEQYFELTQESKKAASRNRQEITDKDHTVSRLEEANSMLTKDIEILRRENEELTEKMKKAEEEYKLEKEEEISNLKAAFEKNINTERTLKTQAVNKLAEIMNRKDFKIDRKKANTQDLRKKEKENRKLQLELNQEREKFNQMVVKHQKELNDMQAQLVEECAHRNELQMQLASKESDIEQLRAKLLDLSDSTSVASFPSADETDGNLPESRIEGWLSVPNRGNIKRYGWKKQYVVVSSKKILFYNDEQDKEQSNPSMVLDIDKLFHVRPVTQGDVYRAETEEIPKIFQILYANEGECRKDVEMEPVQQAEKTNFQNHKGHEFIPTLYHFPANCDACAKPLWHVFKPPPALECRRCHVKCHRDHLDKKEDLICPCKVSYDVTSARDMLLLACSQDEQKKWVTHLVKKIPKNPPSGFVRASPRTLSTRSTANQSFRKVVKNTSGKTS

Sequence of Sodium-dependent serotonin transporter (Homo sapiens) (P31645 whole entry, looked up): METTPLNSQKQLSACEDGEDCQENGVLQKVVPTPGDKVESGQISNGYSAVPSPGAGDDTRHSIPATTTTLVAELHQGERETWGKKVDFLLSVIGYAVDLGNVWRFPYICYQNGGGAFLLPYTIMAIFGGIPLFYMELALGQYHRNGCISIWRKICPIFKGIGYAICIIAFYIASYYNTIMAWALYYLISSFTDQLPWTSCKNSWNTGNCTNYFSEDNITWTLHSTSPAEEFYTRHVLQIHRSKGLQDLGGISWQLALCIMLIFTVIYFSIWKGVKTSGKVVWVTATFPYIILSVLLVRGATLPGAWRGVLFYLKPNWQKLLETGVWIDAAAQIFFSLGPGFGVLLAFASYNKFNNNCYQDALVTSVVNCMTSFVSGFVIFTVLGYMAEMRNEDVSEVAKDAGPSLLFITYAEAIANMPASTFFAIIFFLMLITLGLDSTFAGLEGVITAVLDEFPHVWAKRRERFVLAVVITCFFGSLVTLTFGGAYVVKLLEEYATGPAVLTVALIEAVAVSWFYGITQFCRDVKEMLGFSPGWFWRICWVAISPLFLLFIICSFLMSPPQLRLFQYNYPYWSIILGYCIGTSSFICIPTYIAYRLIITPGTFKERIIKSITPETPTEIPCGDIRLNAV
T2 sequence (Q14432 whole entry): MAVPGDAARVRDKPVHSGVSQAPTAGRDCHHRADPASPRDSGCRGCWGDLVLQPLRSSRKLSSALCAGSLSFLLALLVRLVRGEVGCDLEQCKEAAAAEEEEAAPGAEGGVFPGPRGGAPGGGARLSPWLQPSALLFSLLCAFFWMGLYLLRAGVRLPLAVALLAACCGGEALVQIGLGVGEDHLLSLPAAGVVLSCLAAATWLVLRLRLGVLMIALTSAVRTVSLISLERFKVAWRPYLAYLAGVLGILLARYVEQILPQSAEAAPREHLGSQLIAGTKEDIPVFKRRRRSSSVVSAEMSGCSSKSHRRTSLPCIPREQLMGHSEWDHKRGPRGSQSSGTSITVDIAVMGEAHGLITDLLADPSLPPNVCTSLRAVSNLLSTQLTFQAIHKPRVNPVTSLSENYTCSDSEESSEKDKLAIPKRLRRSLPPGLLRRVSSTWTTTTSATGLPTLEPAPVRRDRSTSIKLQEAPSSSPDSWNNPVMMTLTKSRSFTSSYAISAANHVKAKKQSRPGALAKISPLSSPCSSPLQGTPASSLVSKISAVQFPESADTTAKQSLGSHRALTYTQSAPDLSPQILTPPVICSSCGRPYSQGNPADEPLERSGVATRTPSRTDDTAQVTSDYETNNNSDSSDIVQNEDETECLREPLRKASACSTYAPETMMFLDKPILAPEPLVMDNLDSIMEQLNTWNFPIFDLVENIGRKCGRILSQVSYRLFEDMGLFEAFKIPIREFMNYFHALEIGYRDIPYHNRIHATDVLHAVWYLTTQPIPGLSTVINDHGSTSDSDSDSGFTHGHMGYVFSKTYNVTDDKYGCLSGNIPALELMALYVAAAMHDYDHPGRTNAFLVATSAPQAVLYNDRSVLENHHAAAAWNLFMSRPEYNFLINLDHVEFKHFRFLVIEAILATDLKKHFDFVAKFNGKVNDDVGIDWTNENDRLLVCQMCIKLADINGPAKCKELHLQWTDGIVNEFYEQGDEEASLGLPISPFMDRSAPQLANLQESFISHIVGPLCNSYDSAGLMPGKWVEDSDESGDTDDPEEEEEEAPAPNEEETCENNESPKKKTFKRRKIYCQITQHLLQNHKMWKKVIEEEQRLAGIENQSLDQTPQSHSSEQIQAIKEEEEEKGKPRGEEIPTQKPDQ
Sequence of Homeodomain-interacting protein kinase 2 (Homo sapiens) (Q9H2X6 whole entry, looked up): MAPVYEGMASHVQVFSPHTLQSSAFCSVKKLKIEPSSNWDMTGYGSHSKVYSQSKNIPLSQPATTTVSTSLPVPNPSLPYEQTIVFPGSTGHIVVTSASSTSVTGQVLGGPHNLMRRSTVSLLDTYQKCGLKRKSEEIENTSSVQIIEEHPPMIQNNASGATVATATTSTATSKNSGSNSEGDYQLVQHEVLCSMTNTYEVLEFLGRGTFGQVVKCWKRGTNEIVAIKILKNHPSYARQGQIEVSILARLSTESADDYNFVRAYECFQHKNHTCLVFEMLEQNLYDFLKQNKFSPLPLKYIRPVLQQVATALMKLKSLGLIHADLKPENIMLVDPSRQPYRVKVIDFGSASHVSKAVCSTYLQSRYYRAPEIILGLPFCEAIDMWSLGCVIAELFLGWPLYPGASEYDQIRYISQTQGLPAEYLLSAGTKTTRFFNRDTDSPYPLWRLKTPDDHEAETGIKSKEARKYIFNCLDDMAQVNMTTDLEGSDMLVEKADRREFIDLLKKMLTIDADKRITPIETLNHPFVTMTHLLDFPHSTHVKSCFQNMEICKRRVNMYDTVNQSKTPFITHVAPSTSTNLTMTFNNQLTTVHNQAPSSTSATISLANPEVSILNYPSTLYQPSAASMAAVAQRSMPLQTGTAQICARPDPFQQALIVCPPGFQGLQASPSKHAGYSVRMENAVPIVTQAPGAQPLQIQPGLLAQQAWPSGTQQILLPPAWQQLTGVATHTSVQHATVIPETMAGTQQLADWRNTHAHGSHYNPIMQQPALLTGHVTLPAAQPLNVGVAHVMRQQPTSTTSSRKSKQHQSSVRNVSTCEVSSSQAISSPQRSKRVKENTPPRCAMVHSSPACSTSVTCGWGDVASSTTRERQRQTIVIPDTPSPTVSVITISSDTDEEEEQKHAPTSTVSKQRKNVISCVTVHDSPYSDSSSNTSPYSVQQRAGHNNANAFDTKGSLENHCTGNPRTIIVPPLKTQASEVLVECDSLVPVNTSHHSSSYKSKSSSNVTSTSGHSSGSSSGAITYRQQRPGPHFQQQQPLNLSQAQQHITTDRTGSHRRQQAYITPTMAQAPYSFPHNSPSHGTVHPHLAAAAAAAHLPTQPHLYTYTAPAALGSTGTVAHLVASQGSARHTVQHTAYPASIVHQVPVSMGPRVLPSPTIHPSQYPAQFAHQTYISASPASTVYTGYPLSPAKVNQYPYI
Sequence of Glycogen synthase kinase-3 beta (Homo sapiens) (P49841 whole entry, looked up): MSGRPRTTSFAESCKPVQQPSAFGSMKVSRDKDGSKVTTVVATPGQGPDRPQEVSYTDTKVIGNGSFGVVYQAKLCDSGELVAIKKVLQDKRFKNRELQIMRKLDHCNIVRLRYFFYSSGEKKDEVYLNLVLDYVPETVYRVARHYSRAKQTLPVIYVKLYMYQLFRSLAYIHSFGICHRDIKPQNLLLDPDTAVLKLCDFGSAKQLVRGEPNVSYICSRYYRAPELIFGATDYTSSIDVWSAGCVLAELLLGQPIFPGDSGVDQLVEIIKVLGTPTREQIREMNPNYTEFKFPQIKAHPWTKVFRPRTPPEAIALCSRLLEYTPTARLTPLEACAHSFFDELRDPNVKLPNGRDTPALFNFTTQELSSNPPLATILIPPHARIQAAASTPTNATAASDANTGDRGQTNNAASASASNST
Sequence of Prostaglandin E2 receptor EP2 subtype (Homo sapiens) (P43116 whole entry): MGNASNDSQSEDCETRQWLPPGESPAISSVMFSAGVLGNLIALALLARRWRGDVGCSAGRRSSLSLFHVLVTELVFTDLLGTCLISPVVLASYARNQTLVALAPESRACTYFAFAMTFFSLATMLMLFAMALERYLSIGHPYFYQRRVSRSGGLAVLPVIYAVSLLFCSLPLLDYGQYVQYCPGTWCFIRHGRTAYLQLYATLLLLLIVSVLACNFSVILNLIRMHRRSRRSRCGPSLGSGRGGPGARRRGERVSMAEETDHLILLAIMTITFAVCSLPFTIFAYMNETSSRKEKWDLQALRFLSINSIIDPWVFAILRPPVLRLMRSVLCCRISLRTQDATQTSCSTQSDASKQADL

c1ccc(C2CCN(c3cnc4c(N5CCOCC5)nccn34)CC2)cc1
Ki [1]: 1.82 µM | inhibition [2]: 25.7% | inhibition [3]: 3.12%

COCCc1ccc(-c2c(C)nc3c(N4CCOCC4)ccnn23)cn1 [JNJ-42396302]
effect [4]: 6.7% | inhibition [5]: -1.08% | effect [6]: 13.4% | effect [7]: -4.5% | inhibition [8]: -1% | inhibition [9]: -1% | inhibition [10]: -1% | inhibition [11]: 6% | inhibition [12]: 9% | inhibition [13]: 7% | effect [14]: -9.45% | inhibition [15]: -7% | inhibition [16]: -5% | effect [17]: 3.95% | inhibition [18]: -4% | inhibition [19]: -2% | inhibition [2]: 22.9% | inhibition [20]: -2% | inhibition [21]: -9% | inhibition (Homo sapiens): 3% | inhibition [22]: 0% | inhibition [23]: 0% | inhibition [24]: 2% | effect [25]: 3.05% | inhibition [26]: 2% | effect [27]: 6% | Ki [28]: 15 µM | inhibition [29]: -4% | inhibition [30]: 10% | effect [31]: 7.7% | effect (Rattus norvegicus [32]): 21.1% | inhibition (Rattus norvegicus [33]): 2.18% | inhibition [34]: 2% | effect (Rattus norvegicus [35]): -6.2% | effect [36]: 13.6% | effect [37]: 2.05% | inhibition [3]: 0.57% | effect (Rattus norvegicus [38]): -9.45% | inhibition [39]: 7% | effect [40]: -23.4% | inhibition [41]: 9% | inhibition [42]: 0% | inhibition [43]: -3% | Ki [44]: 49 µM | inhibition [45]: -6%
